According to PubChem BioAssay AID248 (DTP/NCI, 2004):
Inconclusive results and toxic doses are left out. Cut-off read from the data, not from the text of the source: active = T/C of 150% or more; inactive = T/C below 125%.

Test system: L1210 leukemia ip in BDF1 mice, survival T/C
Assay: NCI In Vivo Anticancer Drug Screen. Data for tumor model L1210 Leukemia (intraperitoneal) in B6D2F1 (BDF1) mice
Details: endpoint: mean survival time, higher = longer survival
How it was run: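 In this screen, tumor-bearing mice given compound are compared to those given vehicle, and their survival values are reported as a treated-to-control quotient.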

Measured: T/C

Cc1cc([N+](=O)[O-])ccc1O
inactive: dose: 100.0 mg/kg/injection, schedule: Q01DX001 (ip), vehicle: saline 100 % of control | dose: 200.0 mg/kg/injection, schedule: Q01DX001 (ip), vehicle: saline 100 % of control

CC(C)OC(=O)Nc1cccc(Cl)c1
inactive: dose: 50.0 mg/kg/injection, schedule: Q01DX009 (ip), vehicle: saline sonified 100 % of control | dose: 100.0 mg/kg/injection, schedule: Q01DX009 (ip), vehicle: saline sonified 101 % of control | dose: 100.0 mg/kg/injection, schedule: Q04DX003 (ip), vehicle: saline sonified 87 % of control | dose: 200.0 mg/kg/injection, schedule: Q01DX009 (ip), vehicle: saline sonified 99 % of control | dose: 200.0 mg/kg/injection, schedule: Q04DX003 (ip), vehicle: saline sonified 94 % of control | dose: 400.0 mg/kg/injection, schedule: Q04DX003 (ip), vehicle: saline sonified 94 % of control

CCOC(C)=NC1=C(C#N)CP(c2ccccc2)CC1 (stereo unspecified)
inactive: dose: 100.0 mg/kg/injection, schedule: Q04DX002 (ip), vehicle: saline with Tween-80 103 % of control | dose: 200.0 mg/kg/injection, schedule: Q04DX002 (ip), vehicle: saline with Tween-80 95 % of control | dose: 400.0 mg/kg/injection, schedule: Q04DX002 (ip), vehicle: saline with Tween-80 92 % of control
